Reference: patent US12102633B2, “Spirolactone compounds” (Quixgen, Inc., priority 2017, dated 2024)
“Also recorded” adds a separate entry of the source. Blank lines part the entries; values can stand above or below the compound they belong to.

Key:
[1] = in vivo; cited from earlier work
[2] = in vivo; cited from earlier work; remark: listed apart in the source
Human sebocytes [3] = assay: Cellular levels of malonyl-CoA in human sebocytes; assay type: cell-based; details: 0.5 h, 30 min incubation, read-out: Malonyl-CoA in Sebo IC50
Protocol: (§1) Shimadzu LC system was used for sample analysis consisting of system controller (Shimadzu CBM-20A), autosampler (Shimadzu SIL-20A), pump A and B (Shimadzu LC-20AD), column oven (Shimadzu CTO-20A), and analytical column (Phenomenex Gemini 5u C18 11A, 100×2 mm). LC was running at 200 μL/min in the binary gradient mode with mobile phase A (5 mM Ammonium Acetate and 5 mM DMBA in water (1,3-Dimethylbutylamine)) and B (methanol). The samples were analyzed on an AB Sciex QTrap4000 LC-MS/MS triple quadrupole mass spectrometer (Applied Biosystems). Malonyl-CoA and malonyl-13C-CoA were monitored in positive ion mode following MRM transitions at 854.2/347.1 and 855.1/246.1, respectively. The product and internal standard were coeluted to the mass spectrometer in 3 s with 50% H2O, 25% MeCN, 25% acetone, and 5 mM ammonium acetate. Ion chromatograms were integrated using the Analyst 1.5.2 software. Peak area ratios were compared against a standard curve and final cellular concentration of malonyl-CoA or production rate of malonyl-13C-CoA was calculated as pmoles/mg protein per minute.
Human sebocytes (Celprogen) were grown in growth media (DMEM with 4.5 g/L glucose, 0.584 g/L L-glutamine (Sigma), 100 units/mL of penicillin and 100 μg/mL of streptomycin (Gibco), 10% fetal bovine serum (Gibco)) at 37° C. in a humidified water jacketed incubator (Forma Scientific) supplemented with 5% CO2 till 100% confluency. Cells grown in 152 cm^2 cell culture dish (Corning) were trypsinized with 0.25% trypsin-EDTA (Gibco), centrifuged at 800 rpm for 10 min (Eppendorf) and resuspended in 4 mL growth media. To 1 μL serial diluted compounds in DMSO, 99 μL cells (around 0.5 million cells suspended in growth media) were added and mixed well followed by incubation in cell culture incubator for 30 min. Cells were then centrifuged at 800 rpm for 10 min and 70 μL 10% trichloroacetic acid was added to each well to lyse the cells and precipitate proteins. Cellular levels of malonyl-CoA were quantitated by LC-MS/MS.

[4] = system: T1, Mouse ACC (ACC protein purified from liver); assay: Mouse ACC enzymatic activity assay; assay type: biochemical; details: read-out: EA-CoA mACC IC50
T1 construct: ACC protein was purified by taking advantage of the biotinylation in the carboxylase domain
Protocol: ACC protein was purified by taking advantage of the biotinylation in the carboxylase domain. Male C57BL/6J mice (Jackson Laboratory) at 8-12 weeks of age were euthanized by using CO2 inhalation method and liver was immediately frozen on dry ice. To 100 mg liver was added 1 mL ice-cold tissue lysis buffer (20 mM Tris-HCl pH 7.5, 150 mM NaCl, 1 mM Na2EDTA, 1 mM EGTA, 1% Triton, 2.5 mM sodium pyrophosphate, 1 mM 3-glycerophosphate, 1 mM Na3VO4, 1 μg/mL leupeptin, 1 tablet of protease inhibitor cocktail (Roche) per 10 mL lysis buffer) followed by homogenization on ice with Power Gen 125 homogenizer (Fisher Scientific). After 30 min incubation on ice, tissue lysate was passed through a 10 mL syringe with 18½ G needle for 10 times to shear DNA. The lysate was then subject to 17.5%-35% saturated ammonium sulfate precipitation by adding 880 mg ammonium sulfate powder (Sigma) to 10 mL liver lysate in 10 min with stirring on ice. Sample was centrifuged at 14,000 rpm (Eppendorf) at 4° C. for 10 min and supernatant was saved for further precipitation by adding 880 mg ammonium sulfate powder to 10 ml supernatant in 10 min with stirring on ice. Sample was centrifuged at 14,000 rpm at 4° C. for 10 min. Supernatant was discarded and pellet was dissolved in 10 mL sample buffer (100 mM Tris-HCl, pH 7.5, 1 mM EDTA, 0.1 mM DTT, 0.5 M NaCl, and 5% glycerol). The sample was then added with 1 mL of Strep Mag beads slurry (Genscript) and rotated at 4° C. for 1 hour. Supernatant was discarded and beads were washed with sample buffer for 3 times. Protein was then eluted by adding 10 mL of 2 mM biotin (Promega) prepared in sample buffer. The eluate was then dialyzed at 4° C. for 1 hour by using Slide-A-Lyzer™ Dialysis Cassettes 10K MWCO (Thermo Fisher Scientific) against 3 changes of 200 mL dialysis buffer (50 mM HEPES, pH 7.5, 0.1 mM DTT, 1.0 mM EDTA, and 10% glycerol). Total protein concentration was then quantitated by using BCA protein assay kit (Pierce).
For ACC enzymatic activity assay, 1 μL serial diluted compounds prepared in DMSO in duplicate were mixed with 8 μL dialyzed sample at 37° C. for 10 min. Ninety one L of reaction buffer (50 mM HEPES pH 7.5, 10 mM MgCl2, 2.0 mM DTT, 0.5 mM acetyl-CoA, 4.0 mM ATP, 15 mM ^13C-NaHCO3, 0.75 mg/mL BSA, 0.5 mM sodium citrate) was added to the tube and mixed thoroughly. After incubation at 37° C. for 1 hour, 300 μl ice-cold quenching buffer (acetonitrile:methanol=1:1, 20 μM carbutamide as internal standard) was added to each tube and mixed well to terminate the reaction. Samples were centrifuged at 14,000 rpm for 10 min (Eppendorf) and supernatant was loaded onto LC-MS/MS for quantitation of malonyl-^13C-CoA (Gao et al., Journal of chromatography B, Analytical technologies in the biomedical and life sciences 853, 303-313 (2007)).
as §1

Human sebocytes [5] = assay: Lipogenesis of human sebocytes; assay type: cell-based; details: 96 hours, nile red, read-out: LG-Sebo IC50
Protocol: Human sebocytes (Celprogen) were grown in collagen-coated 96-well culture microplate (White/Clear bottom, Coming BioCoat) with growth media till 100% confluency. Culture media was changed to growth media plus 100 μM arachidonic acid (Sigma) and 10 μM rosiglitazone (Tocris) with compounds prepared in DMSO (1:1000 dilution in growth media). Cells were treated with compounds for 96 hours with media containing compounds changed after 48 hours. Upon completion of treatment, cells were washed with 200 μL Phosphate Buffered Saline (PBS) and then fixed by adding 100 μL 4% formaldehyde (Sigma) and incubated at room temperature for 1 hour. Cells were then washed 3 times with PBS. Microplate was stained with 100 μL nile red solution prepared in PBS (2 mg/mL, 1:400 dilution) by incubating at 37° C. for 1 hour and then washed 3 times with PBS. The fluorescence was read at Ex 492 nm and Em 595 nm (TECAN SpectrofluorPlus). Effect of compounds on lipogenesis in sebocytes was calculated by % of DMSO vehicle control.

3T3-L1 adipocytes = assay: Lipogenesis of 3T3-L1 adipocytes; assay type: cell-based; details: Mus musculus, TG readout, read-out: LG-3T3 IC50
Protocol: 3T3-L1 fibroblast cells (Zen-Bio) were grown in 96-well culture microplate (Corning) with growth media to around 90-100% confluency. Culture media was changed to differentiation media (growth media supplemented with 3-Isobutyl-1-Methylxanthine 500 μM, Dexamethasone 1 μM, insulin 10 μg/mL, and rosiglitazone 2 μM) plus serially diluted compounds prepared in DMSO (1:1000 dilution). After incubation for 2 days, media was changed to maintenance media (growth media supplemented with insulin 10 μg/mL) plus serially diluted compounds prepared in DMSO (1:1000 dilution) for around 1 week with media changed every 2 days. Upon completion of the treatment, culture media are discarded and 200 μL 0.01% SDS was added to each well and shaken for 1 hour to lyse the cells. Cell lysates were then transferred to 400 μL Folch's solution (chloroform: methanol=2:1) and mixed well. After centrifuge at 2,000 rpm for 20 min, 200 μL of the lower organic phase was transferred to a plate with 10 μL sample buffer (chloroform:Triton-100=3:1). Samples were blown dried under nitrogen and 200 μL triglyceride (TG) quantification reagent (Thermo Fisher Scientific) was added, mixed, and incubated at 37° C. for 30 min. TG concentration was determined by reading absorbance at 535 nm (Dynex MRX^e Magellan Biosciences) and calculated from standard curve.

Human sebocytes [6] = assay: Proliferation of human sebocytes; assay type: cell-based; details: 24 hours, MTT, read-out: AP-Sebo IC50
Protocol: Human sebocytes (Celprogen) and keratinocytes (ATCC) were grown in 96-well culture microplate (Coming) with growth media to around 50% confluency. Media was changed to growth media mixed with serially diluted compounds in DMSO (1:1000 dilution). After treatment for 24 hours, media was changed to 100 μL phenol red free DMEM and cell numbers were quantitated by using Vybrant® MTT Cell Proliferation Assay Kit (Molecular Probes). Ten μL of 12 mM MTT stock solution was added to each well and the microplate was incubated at 37° C. for 4 hours. Then 100 μL of the SDS-HCl solution was added to each well and mixed thoroughly using a pipette. The microplate was incubated at 37° C. for 4 hours in a cell culture incubator. The microplate was mixed again using a pipette and absorbance was read at 570 nm (Dynex MRX^e Magellan Biosciences). Effect of compounds on proliferation of human keratinocytes was calculated by % of DMSO vehicle control.

[7] = system: liver triglycerides (TG) in C57BL/6J mice; assay: Chronic treatment for reducing liver triglycerides in C57BL/6J mice; assay type: in vivo, mouse; details: male C57BL/6J mice; 20 mg per kilogram body weight in 0.5% methylcellulose, oral gavage once per day for 2 weeks; FIG. 1, vs vehicle
Protocol: Male C57BL/6J mice (Jackson Laboratory) at around 9 weeks of age were treated with vehicle (0.5% methylcellulose or PEG400) or Example 14 (30 mg per kilogram body weight, dosing solution prepared in PEG400) and Example 20 (20 mg per kilogram body weight, dosing solution prepared in 0.5% methylcellulose) by oral gavage at ˜9:00 am, once per day for 2 weeks. Concentrations of Example 14 and Example 20 were 15 mg/ml and 2 mg/ml, respectively. The dosing volumes of Example 14 and Example 20 were 2 ml per kilogram body weight and 10 ml per kilogram body weight, respectively. After 14-day treatment, animals were euthanized in CO2 at 2 hours post dose and liver was frozen and kept on dry ice. Liver TG was measured by extracting lipids with chloroform:methanol 2:1 (v/v) followed by quantitation with Infinity™ Triglycerides Reagent (Thermo Scientific).

human ACC2 = target: T2, human ACC2 (Homo sapiens, UniProt O00763); assay: Human ACC enzymatic activity assay (ACC2); assay type: biochemical; details: purified human ACC2; read-out: EA-CoA hACC 2 IC50
T2 construct: purchased BPS Bioscience
Protocol: (§2) Human ACC enzymatic activity assays were performed by using purified human ACC1 and ACC2 proteins (BPS Bioscience). ACC1 and ACC2 proteins were diluted in 24.5 μL reaction buffer (50 mM HEPES pH 7.5, 10 mM MgCl2, 2.0 mM DTT, 4.0 mM ATP, 15 mM ^13C-NaHCO3, 0.75 mg/mL BSA, 0.5 mM sodium citrate), and final concentrations of ACC1 and ACC2 were 0.4 μg/mL and 0.48 μg/mL. For each reaction, 0.5 μL of serial diluted compounds were prepared in DMSO in duplicate or triplicate and mixed with the above 24.5 μL reaction mixtures with ACC proteins at 37° C. for 10 min. Meanwhile, 25 μL of reaction buffer plus acetyl-CoA (final concentration: 5 μM) was prepared freshly and added to the above 25 μL mixture to initiate the reaction. After incubation at 37° C. for 1-2 hours, 100 μl ice-cold 10% TCA with malonyl-^13C3-CoA (final concentration: 40 nM, Sigma-Aldrich) was added to terminate the reaction. For LC-MS/MS analysis, 300 μL quenching buffer (acetonitrile:methanol=1:1, 20 μM carbutamide as internal standard) was added to each tube and mixed well. Samples were then centrifuged at 14,000 rpm for 10 min (Eppendorf) and supernatants were loaded onto LC-MS/MS for quantitation of […] (Gao et al., Journal of chromatography B, Analytical technologies in the biomedical and life sciences 853, 303-313 (2007)).
as §1

human ACC1 = target: T3, human ACC1 (Homo sapiens, UniProt Q13085); assay: Human ACC enzymatic activity assay (ACC1); assay type: biochemical; details: purified human ACC1; read-out: EA-CoA hACC 1 IC50
T3 construct: purchased BPS Bioscience
Protocol: as §2, §1

T2 sequence (O00763 whole entry): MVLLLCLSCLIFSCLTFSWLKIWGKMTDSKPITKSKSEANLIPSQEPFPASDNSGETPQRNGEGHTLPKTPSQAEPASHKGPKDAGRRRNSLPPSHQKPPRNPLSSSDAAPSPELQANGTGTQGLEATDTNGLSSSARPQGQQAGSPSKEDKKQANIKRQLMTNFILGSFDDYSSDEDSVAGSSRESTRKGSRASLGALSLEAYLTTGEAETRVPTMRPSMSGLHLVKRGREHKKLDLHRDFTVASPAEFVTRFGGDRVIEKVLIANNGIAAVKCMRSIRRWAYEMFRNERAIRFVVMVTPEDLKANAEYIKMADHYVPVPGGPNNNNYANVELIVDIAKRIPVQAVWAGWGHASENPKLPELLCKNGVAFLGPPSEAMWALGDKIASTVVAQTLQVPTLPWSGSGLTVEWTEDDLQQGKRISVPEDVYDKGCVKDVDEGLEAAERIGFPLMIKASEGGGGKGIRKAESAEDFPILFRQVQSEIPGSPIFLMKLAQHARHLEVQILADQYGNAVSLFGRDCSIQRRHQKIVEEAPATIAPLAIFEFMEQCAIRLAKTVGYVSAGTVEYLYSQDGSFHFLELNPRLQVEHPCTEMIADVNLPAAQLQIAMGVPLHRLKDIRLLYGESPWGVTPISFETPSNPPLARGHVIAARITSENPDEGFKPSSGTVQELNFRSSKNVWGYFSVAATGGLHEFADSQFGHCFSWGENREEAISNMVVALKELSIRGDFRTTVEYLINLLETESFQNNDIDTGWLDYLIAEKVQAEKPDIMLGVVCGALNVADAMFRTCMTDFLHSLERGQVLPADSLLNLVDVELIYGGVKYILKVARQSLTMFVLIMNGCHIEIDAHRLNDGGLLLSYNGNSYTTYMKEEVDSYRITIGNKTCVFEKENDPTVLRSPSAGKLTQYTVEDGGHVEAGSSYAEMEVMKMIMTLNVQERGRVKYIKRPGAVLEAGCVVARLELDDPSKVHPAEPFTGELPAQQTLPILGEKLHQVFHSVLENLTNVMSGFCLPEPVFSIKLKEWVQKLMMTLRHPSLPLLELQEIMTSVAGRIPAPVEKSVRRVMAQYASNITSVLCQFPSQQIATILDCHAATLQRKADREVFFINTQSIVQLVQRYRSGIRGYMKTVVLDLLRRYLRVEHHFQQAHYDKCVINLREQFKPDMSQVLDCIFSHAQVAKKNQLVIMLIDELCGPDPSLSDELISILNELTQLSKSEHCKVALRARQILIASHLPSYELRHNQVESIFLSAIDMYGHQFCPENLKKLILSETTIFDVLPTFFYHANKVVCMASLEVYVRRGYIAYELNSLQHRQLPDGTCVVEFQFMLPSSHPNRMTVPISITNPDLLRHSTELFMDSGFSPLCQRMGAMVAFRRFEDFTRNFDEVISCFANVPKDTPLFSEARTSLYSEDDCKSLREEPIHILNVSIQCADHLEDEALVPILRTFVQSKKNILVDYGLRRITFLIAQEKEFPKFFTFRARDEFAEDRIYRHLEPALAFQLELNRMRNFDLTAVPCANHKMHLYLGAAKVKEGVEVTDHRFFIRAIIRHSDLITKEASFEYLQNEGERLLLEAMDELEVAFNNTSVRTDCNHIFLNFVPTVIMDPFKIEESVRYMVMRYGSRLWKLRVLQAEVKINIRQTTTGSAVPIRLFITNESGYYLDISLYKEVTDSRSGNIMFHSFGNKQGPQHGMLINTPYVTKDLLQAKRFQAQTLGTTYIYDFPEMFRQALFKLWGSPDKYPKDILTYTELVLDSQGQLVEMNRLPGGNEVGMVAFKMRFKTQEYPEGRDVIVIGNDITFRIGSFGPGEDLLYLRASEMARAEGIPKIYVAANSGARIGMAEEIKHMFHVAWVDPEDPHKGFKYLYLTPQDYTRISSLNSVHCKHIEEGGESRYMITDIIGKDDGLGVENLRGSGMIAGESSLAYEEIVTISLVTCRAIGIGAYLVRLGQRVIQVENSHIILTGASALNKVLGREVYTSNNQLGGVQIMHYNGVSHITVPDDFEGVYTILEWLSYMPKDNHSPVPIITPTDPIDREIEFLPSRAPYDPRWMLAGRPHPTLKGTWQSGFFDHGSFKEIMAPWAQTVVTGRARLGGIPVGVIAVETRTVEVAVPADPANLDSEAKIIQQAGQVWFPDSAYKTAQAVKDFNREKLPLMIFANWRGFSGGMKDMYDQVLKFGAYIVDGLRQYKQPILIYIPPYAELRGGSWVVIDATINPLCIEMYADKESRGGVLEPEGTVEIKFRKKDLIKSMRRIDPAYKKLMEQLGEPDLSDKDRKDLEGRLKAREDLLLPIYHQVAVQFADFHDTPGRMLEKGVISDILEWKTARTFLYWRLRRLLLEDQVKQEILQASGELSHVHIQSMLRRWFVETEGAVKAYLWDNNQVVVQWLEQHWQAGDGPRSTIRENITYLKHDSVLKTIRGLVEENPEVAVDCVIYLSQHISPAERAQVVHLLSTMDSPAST

Structure (SMILES): CCCCCCCCCCCCCCOc1ccc(C(=O)OCC(=O)N(C)CC(=O)OCC)o1 [olumacostat glasaretil]
Phase II data [1]: positive
Primary endpoints in phase III study [2]: did not meet its primary endpoints

Structure (SMILES): COc1cc(C(=O)N2CCC3(CC2)Cc2ccc(C(C)C)cc2C(=O)O3)cc2c(OC)cccc12 [Example 1, 1′-(4,8-dimethoxy-2-naphthoyl)-7-isopropylspiro[isochroman-3,4′-piperidin]-1-one]
IC50 (Human sebocytes [3]): 41.5 nM
IC50 [4]: 3.7 nM
IC50 (Human sebocytes [5]): 10 nM
IC50 (3T3-L1 adipocytes): 1.3 nM
IC50 (Human sebocytes [6]): 93.3 nM

IC50 (human ACC2): 152 nM
IC50 (human ACC1): 148 nM
Structure (SMILES): COc1cc(C(=O)N2CCC3(CC2)Cc2ccc(-c4cncc(C(=O)O)c4)cc2C(=O)O3)nc2c(C3CC3)cccc12 [Example 20, 5-(1′-(8-cyclopropyl-4-methoxyquinoline-2-carbonyl)-1-oxospiro[isochroman-3,4′-piperidin]-7-yl)nicotinic acid]
Liver TG [7]: reduced liver triglycerides; also recorded: reduced liver TG
